In PMC8536124 (International Journal of Molecular Sciences, 2021):

Experiments:
Test in all cases: NCI-60 screening (SRB)
Format in all cases: cell-based, human
NCI-H522 = conditions: five-dose; for GI50 / CC50: Homo sapiens; for CC50: read-out: LC50 (the source's name)
COLO 205 = conditions: five-dose; for GI50 / CC50: Homo sapiens; for CC50: read-out: LC50 (the source's name)
SK-MEL-5 = conditions: for GI50 / CC50: Homo sapiens; for GI50 / CC50 / Growth % / TGI: SK-MEL-5; for GI50 / CC50 / TGI: five-dose; for CC50: read-out: LC50 (the source's name)
T-47D = conditions: five-dose; for GI50 / LC50 (concentration killing 50% of cells): Homo sapiens, T47D
HCT-15 = conditions: five-dose; for GI50 / CC50: Homo sapiens; for CC50: read-out: LC50 (the source's name)
SW-620 = conditions: five-dose; for GI50 / CC50: Homo sapiens; for CC50: read-out: LC50 (the source's name)
BT-549 = conditions: five-dose; for GI50 / CC50: Homo sapiens; for CC50: read-out: LC50 (the source's name)
RPMI-8226 = conditions: five-dose; for GI50 / CC50: Homo sapiens; for CC50: read-out: LC50 (the source's name)
HS 578T = conditions: five-dose; for GI50 / CC50: Homo sapiens; for CC50: read-out: LC50 (the source's name)
ACHN = conditions: five-dose; for GI50 / LC50: Homo sapiens
PC-3 = conditions: five-dose; for GI50 / CC50: Homo sapiens; for CC50: read-out: LC50 (the source's name)
LOX IMVI = conditions: for GI50 / CC50: Homo sapiens; for GI50 / CC50 / TGI: LOX IMVI, five-dose; for CC50: read-out: LC50 (the source's name)
MCF7 = conditions: five-dose; for GI50 / CC50: Homo sapiens; for CC50: read-out: LC50 (the source's name)
MDA-MB-435 = conditions: five-dose; for GI50 / CC50: Homo sapiens; for CC50: read-out: LC50 (the source's name)
SK-MEL-28 = conditions: for GI50 / CC50: Homo sapiens; for GI50 / CC50 / TGI: five-dose; for CC50: read-out: LC50 (the source's name)
DU-145 = conditions: five-dose; for GI50 / CC50: Homo sapiens; for CC50: read-out: LC50 (the source's name)
SNB-19 = conditions: five-dose; for GI50 / CC50: Homo sapiens; for CC50: read-out: LC50 (the source's name)
EKVX = conditions: five-dose; for GI50 / LC50: Homo sapiens
U251 = conditions: for GI50 / CC50: Homo sapiens, U-251; for GI50 / CC50 / TGI: U251, five-dose; for CC50: read-out: LC50 (the source's name)
UO-31 = conditions: five-dose; for GI50 / CC50: Homo sapiens; for CC50: read-out: LC50 (the source's name)
MOLT-4 = conditions: five-dose; for GI50 / CC50: Homo sapiens; for CC50: read-out: LC50 (the source's name)
HCT-116 = conditions: five-dose; for GI50 / CC50: Homo sapiens; for CC50: read-out: LC50 (the source's name)
NCI/ADR-RES = conditions: five-dose; for GI50 / CC50: Homo sapiens; for CC50: read-out: LC50 (the source's name)
OVCAR-3 = conditions: five-dose; for GI50 / CC50: Homo sapiens; for CC50: read-out: LC50 (the source's name)
KM12 = conditions: five-dose; for GI50 / CC50: Homo sapiens; for CC50: read-out: LC50 (the source's name)
A498 = conditions: A498, five-dose; for GI50 / CC50: Homo sapiens; for CC50: read-out: LC50 (the source's name)
MALME-3M = conditions: for GI50 / CC50: Homo sapiens; for GI50 / CC50 / TGI: MALME-3M, five-dose; for CC50: read-out: LC50 (the source's name)
OVCAR-8 = conditions: five-dose; for GI50 / CC50: Homo sapiens; for CC50: read-out: LC50 (the source's name)
786-0 = conditions: five-dose; for GI50 / CC50: Homo sapiens; for CC50: read-out: LC50 (the source's name)
SK-OV-3 = conditions: five-dose; for GI50 / CC50: Homo sapiens; for CC50: read-out: LC50 (the source's name)

CCN1CCN(C(=O)[C@]23CCC(C)(C)C[C@H]2C2=CC[C@@H]4[C@@]5(C)C/C(=C/c6cccnc6)C(=O)C(C)(C)[C@@H]5CC[C@@]4(C)[C@]2(C)CC3)CC1 [Compound 6]
GI50 (NCI-H522): 1610 nM
CC50 (NCI-H522): 8730 nM
TGI (NCI-H522): 3750 nM
GI50 (COLO 205): 1890 nM
CC50 (COLO 205): > 100000 nM
TGI (COLO 205): 4740 nM
GI50 (SK-MEL-5): 1630 nM
CC50 (SK-MEL-5): 5540 nM
Growth % (SK-MEL-5; 1 dose 10 µM): −91.03%
TGI (SK-MEL-5): 3000 nM
cell death (SK-MEL-5; SK-MEL-5 melanoma, 1 dose 10 µM): 88.15%
GI50 (T-47D): 2610 nM
LC50 (concentration killing 50% of cells) (T-47D): > 100000 nM
TGI (T-47D): 13700 nM
GI50 (HCT-15): 1080 nM
CC50 (HCT-15): 6790 nM
TGI (HCT-15): 2710 nM
GI50 (SW-620): 1780 nM
CC50 (SW-620): 8460 nM
TGI (SW-620): 3880 nM
GI50 (BT-549): 1470 nM
CC50 (BT-549): 5660 nM
TGI (BT-549): 2880 nM
GI50 (RPMI-8226): 1030 nM
CC50 (RPMI-8226): > 100000 nM
TGI (RPMI-8226): 5200 nM
GI50 (HS 578T): 1830 nM
CC50 (HS 578T): > 100000 nM
TGI (HS 578T): 5370 nM
GI50 (ACHN): 2600 nM
LC50 (ACHN): 32400 nM
TGI (ACHN): 10500 nM
GI50 (PC-3): 1000 nM
CC50 (PC-3): 7780 nM
TGI (PC-3): 2790 nM
GI50 (LOX IMVI): 1360 nM
CC50 (LOX IMVI): 5450 nM
TGI (LOX IMVI): 2730 nM
GI50 (MCF7): 1400 nM
CC50 (MCF7): 6710 nM
TGI (MCF7): 3070 nM
GI50 (MDA-MB-435): 1480 nM
CC50 (MDA-MB-435): 6520 nM
TGI (MDA-MB-435): 3110 nM
GI50 (SK-MEL-28): 1480 nM
CC50 (SK-MEL-28): 5410 nM
TGI (SK-MEL-28): 2830 nM
GI50 (DU-145): 1830 nM
CC50 (DU-145): 8230 nM
TGI (DU-145): 3880 nM
GI50 (SNB-19): 1680 nM
CC50 (SNB-19): 7120 nM
TGI (SNB-19): 3460 nM
GI50 (EKVX): 1900 nM
LC50 (EKVX): 43500 nM
TGI (EKVX): 6480 nM
GI50 (U251): 1580 nM
CC50 (U251): 6130 nM
Growth % (U251; U251 (CNS cancer), 1 dose 10 µM): −88.15%
TGI (U251): 3110 nM
GI50 (UO-31): 1350 nM
CC50 (UO-31): 5320 nM
TGI (UO-31): 2670 nM
GI50 (MOLT-4): 1430 nM
CC50 (MOLT-4): > 100000 nM
TGI (MOLT-4): >100000 nM
GI50 (HCT-116): 1010 nM
CC50 (HCT-116): 4890 nM
TGI (HCT-116): 2220 nM
GI50 (NCI/ADR-RES): 1570 nM
CC50 (NCI/ADR-RES): 7600 nM
TGI (NCI/ADR-RES): 3460 nM
GI50 (OVCAR-3): 1510 nM
CC50 (OVCAR-3): 5730 nM
TGI (OVCAR-3): 2950 nM
GI50 (KM12): 1580 nM
CC50 (KM12): 6750 nM
TGI (KM12): 3260 nM
TGI (A498): 3530 nM
GI50 (A498): 1660 nM
CC50 (A498): 7480 nM
GI50 (MALME-3M): 1530 nM
CC50 (MALME-3M): 5540 nM
TGI (MALME-3M): 2910 nM
GI50 (OVCAR-8): 2140 nM
CC50 (OVCAR-8): > 100000 nM
TGI (OVCAR-8): 5540 nM
GI50 (786-0): 1600 nM
CC50 (786-0): 5910 nM
TGI (786-0): 3080 nM
GI50 (SK-OV-3): 4190 nM
CC50 (SK-OV-3): 76100 nM

CCN1CCN(C(=O)[C@]23CC[C@@H](C)[C@H](C)[C@H]2C2=CC[C@@H]4[C@@]5(C)CCC(=O)C(C)(C)[C@@H]5CC[C@@]4(C)[C@]2(C)CC3)CC1 [Compound 4, N-(3-oxo-ursan-12-en-28-oyl)-ethylpiperazine]
GI50 (NCI-H522): 831 nM
CC50 (NCI-H522): 3690 nM
TGI (NCI-H522): 1750 nM
GI50 (COLO 205): 1020 nM
CC50 (COLO 205): 14500 nM
TGI (COLO 205): 2370 nM
GI50 (SK-MEL-5): 888 nM
CC50 (SK-MEL-5): 2890 nM
Growth % (SK-MEL-5; 1 dose 10 µM): −84.06%
TGI (SK-MEL-5): 1600 nM
GI50 (T-47D): 1330 nM
LC50 (concentration killing 50% of cells) (T-47D): > 50000 nM
TGI (T-47D): 3890 nM
GI50 (HCT-15): 977 nM
CC50 (HCT-15): 7410 nM
TGI (HCT-15): 2390 nM
GI50 (SW-620): 902 nM
CC50 (SW-620): 3440 nM
TGI (SW-620): 1760 nM
GI50 (BT-549): 833 nM
CC50 (BT-549): 3000 nM
TGI (BT-549): 1580 nM
GI50 (RPMI-8226): 809 nM
CC50 (RPMI-8226): 4900 nM
TGI (RPMI-8226): 1990 nM
GI50 (HS 578T): 1070 nM
CC50 (HS 578T): 26500 nM
TGI (HS 578T): 2680 nM
GI50 (ACHN): 1330 nM
LC50 (ACHN): 14800 nM
TGI (ACHN): 4380 nM
GI50 (PC-3): 875 nM
CC50 (PC-3): 18300 nM
TGI (PC-3): 3170 nM
GI50 (LOX IMVI): 821 nM
CC50 (LOX IMVI): 2800 nM
TGI (LOX IMVI): 1520 nM
Growth % (LOX IMVI; LOXIMVI (Melanoma), 1 dose 10 µM): −85.17%
GI50 (MCF7): 892 nM
CC50 (MCF7): 4630 nM
TGI (MCF7): 2030 nM
GI50 (MDA-MB-435): 1050 nM
CC50 (MDA-MB-435): 5220 nM
TGI (MDA-MB-435): 2300 nM
Growth % (SK-MEL-28; 1 dose 10 µM): −64.66%
GI50 (SK-MEL-28): 889 nM
CC50 (SK-MEL-28): 3270 nM
TGI (SK-MEL-28): 1700 nM
GI50 (DU-145): 1670 nM
CC50 (DU-145): 18600 nM
TGI (DU-145): 5620 nM
GI50 (SNB-19): 849 nM
CC50 (SNB-19): 3470 nM
TGI (SNB-19): 1720 nM
GI50 (EKVX): 916 nM
LC50 (EKVX): 8950 nM
TGI (EKVX): 2420 nM
GI50 (U251): 854 nM
CC50 (U251): 4000 nM
TGI (U251): 1850 nM
GI50 (UO-31): 726 nM
CC50 (UO-31): 2790 nM
TGI (UO-31): 1420 nM
GI50 (MOLT-4): 994 nM
CC50 (MOLT-4): > 50000 nM
TGI (MOLT-4): 2900 nM
GI50 (HCT-116): 798 nM
CC50 (HCT-116): 3090 nM
TGI (HCT-116): 1570 nM
GI50 (NCI/ADR-RES): 1080 nM
CC50 (NCI/ADR-RES): 18300 nM
TGI (NCI/ADR-RES): 3240 nM
GI50 (OVCAR-3): 1100 nM
CC50 (OVCAR-3): 6520 nM
TGI (OVCAR-3): 2440 nM
GI50 (KM12): 1030 nM
CC50 (KM12): 4790 nM
TGI (KM12): 2220 nM
TGI (A498): 2420 nM
GI50 (A498): 927 nM
CC50 (A498): 7920 nM
GI50 (MALME-3M): 807 nM
CC50 (MALME-3M): 8840 nM
Growth % (MALME-3M; MALME-3M (Melanoma), 1 dose 10 µM): −85.67%
TGI (MALME-3M): 1510 nM
GI50 (OVCAR-8): 1100 nM
CC50 (OVCAR-8): 30100 nM
TGI (OVCAR-8): 2890 nM
GI50 (786-0): 814 nM
CC50 (786-0): 3560 nM
TGI (786-0): 1700 nM
GI50 (SK-OV-3): 1150 nM
CC50 (SK-OV-3): 17200 nM
TGI (SK-OV-3): 4830 nM
